In this assay the test system is MV-4-11 acute myeloid leukemia cells. In words: CellTiter-Glo 2.0 cell viability, MV-4-11. To be noted: Homo sapiens. The assay is classed as cell-based. As for the experimental part: 2019 October; 94(4): 1813-1823.
Cell viability was assessed using the CellTiter-Glo 2.0 assay from Promega, which yields a signal proportional to the amount of ATP present in a cell population. Compounds were first dispensed into empty 96-well flat-bottom tissue culture-treated plates (Corning) using an Echo550. MV4-1 cells were diluted to a density of 0.1 million cells per ml, pipetted onto the compounds at a density of 1,000 cells per well for U937 and 3,000 cells per well for MV4-11, mixed, and incubated for 3 days at 37° C. with 5% C02. After incubating, 5 μl of cells from each well were added to 5 μl of CellTiter-Glo 2.0 reagent in a384-well white ProxiPlate (PerkinElmer), incubated for 20 minutes at ambient temperature, and luminescence was analyzed on an EnSpire plate reader. Graphing and regression analysis was performed in Graphpad Prism.
(In general: Cellular ATP, detected with luciferase, serves as a proxy for viable cell number.)

Where [1] appears, read: MV4-11, 72 h, MV-4-11 cells, 3 days, CellTiter-Glo 2.0, read-out: IC50 (uM) [Cell Type: MV-4-11].
[2] abbreviates: MV4-11, bound stated in text, read-out: IC50 against MV-4-11 acute myeloid leukemia cells.

Where two headings read alike, the source gives them in different places.

As to `O=C1CCCN1CCn1c(C(F)(F)F)cc2c(Cl)ncnc21` [NUCC-0226439], the half-maximal inhibitory concentration (IC50) (usually the concentration needed to halve the response being measured) by setting is: under setting [1], 0.11 µM; under setting [2], less than 2 µM. Taken in the same sequence, the figures for `CC(C)(O)CCn1c(C(F)(F)F)cc2c(Cl)ncnc21` [NUCC-0226440] were 0.23 µM and less than 2 µM. For `OCCOCCn1c(C(F)(F)F)cc2c(Cl)ncnc21` [NUCC-0226665], the IC50 reads like this: under setting [1], 1.23 µM; under setting [2], less than 2 µM.

As to `CN(C)CCn1c(C(F)(F)F)cc2c(Cl)ncnc21` [NUCC-0226666], under setting [1], the half-inhibitory concentration (IC50) worked out at 2.09 µM.

Turning to `FC(F)(F)c1cc2c(Cl)ncnc2n1CCN1CCCC1` [NUCC-0226667], the concentration for half-maximal inhibition (IC50) is 1.43 µM under setting [1] and less than 2 µM under setting [2].

With `O=S1(=O)CCC(Cn2c(C(F)(F)F)cc3c(Cl)ncnc32)CC1` [NUCC-0226668], the IC50 under setting [1] worked out at 2.88 µM. For `CC(C)(C)OC(=O)N1CC(Cn2c(C(F)(F)F)cc3c(Cl)ncnc32)C1` [NUCC-0226669], the half-inhibitory concentration (IC50) under setting [1] was determined as 1.02 µM and the IC50 under setting [2] is less than 2 µM. On to `FC(F)(F)c1cc2c(Cl)ncnc2n1CC1CNC1` [NUCC-0226670], for which the IC50 is 1.12 µM under setting [1] and less than 2 µM under setting [2]. Turning to `N=C(N)N1CC(Cn2c(C(F)(F)F)cc3c(Cl)ncnc32)C1` [NUCC-0226671], the IC50 under setting [1] was greater than 20 µM. For the molecule `FC(F)(F)CN1CC(Cn2c(C(F)(F)F)cc3c(Cl)ncnc32)C1` [NUCC-0226672], the half-inhibitory concentration (IC50) runs as follows: under setting [1], 0.871 µM; under setting [2], less than 2 µM. On to `FC(F)(F)c1cc2c(Cl)ncnc2n1CC1CCOCC1` [NUCC-0226673], for which the half-inhibitory concentration (IC50) under setting [1] came to 2.68 µM. As for `CC(C)(C)OC(=O)N1CCC(Cn2c(C(F)(F)F)cc3c(Cl)ncnc32)CC1` [NUCC-0226675, tert-butyl 4-((4-chloro-6-(trifluoromethyl)-7H-pyrrolo[2,3-d]pyrimidin-7-yl)methyl)piperidine-1-carboxylate], the IC50 under setting [1] was 2.51 µM. As for `CC(=O)N1CCC(Cn2c(C(F)(F)F)cc3c(Cl)ncnc32)CC1` [NUCC-0226676], the 50% inhibitory concentration (IC50) under setting [1] is greater than 20 µM.

`NC(=O)N1CCC(Cn2c(C(F)(F)F)cc3c(Cl)ncnc32)CC1` [NUCC-0226677]: the IC50 was 1.6 µM under setting [1] and less than 2 µM under setting [2].

For the molecule `CC(C)(C)OC(=O)N1CCC(CCn2c(C(F)(F)F)cc3c(Cl)ncnc32)CC1` [NUCC-0226678], the 50% inhibitory concentration (IC50) is, setting by setting: under setting [1], 1.3 µM; under setting [2], less than 2 µM. The matching figures for `CC(C)(C)OC(=O)N1CCN(CCn2c(C(F)(F)F)cc3c(Cl)ncnc32)CC1` [NUCC-0226681]: 0.949 µM and less than 2 µM.

Take `FC(F)(F)c1cc2c(Cl)ncnc2n1CCN1CCNCC1` [NUCC-0226682]: the IC50 under setting [1] stood at 2.24 µM. As for `Cc1n[nH]c(C)c1CCn1c(C(F)(F)F)cc2c(Cl)ncnc21` [NUCC-0226684], the IC50 under setting [1] amounted to 0.94 µM and the IC50 under setting [2] is less than 2 µM. As for `FC(F)(F)c1cc2c(Cl)ncnc2n1CCn1cccn1` [NUCC-0226685], the IC50 under setting [1] was 3.98 µM. With `Fc1ccc(Cn2c(C(F)(F)F)cc3c(Cl)ncnc32)cc1` [NUCC-0226686], the IC50 is 1.13 µM under setting [1] and less than 2 µM under setting [2]. Take `FC(F)(F)c1cc2cncnc2n1CC1CCNCC1` [NUCC-0226687]: the IC50 under setting [1] is greater than 20 µM. Same read-out and setting: then `Oc1ncnc2c1cc(C(F)(F)F)n2CC1CCNCC1` [NUCC-0226688], with greater than 20 µM. In the case of `FC(F)(F)c1cc2c(Cl)ncnc2n1Cc1cccnc1` [NUCC-0226690], the half-inhibitory concentration (IC50) is 0.562 µM under setting [1] and less than 2 µM under setting [2]. For `FC(F)(F)c1cc2c(Cl)ncnc2n1Cc1ccncc1` [NUCC-0226691], the IC50 by setting is: under setting [1], 1.32 µM; under setting [2], less than 2 µM. As to `FC(F)(F)c1cc2c(Cl)ncnc2n1CCC1CCNCC1` [NUCC-0226692], the IC50 by setting is: under setting [1], 0.773 µM; under setting [2], less than 2 µM. With `O=c1cc(Cn2c(C(F)(F)F)cc3c(Cl)ncnc32)cc[nH]1` [NUCC-0226693], the half-maximal inhibitory concentration (IC50) under setting [1] came out at 2.01 µM.

On to `Cc1ncnc2c1cc(C(F)(F)F)n2CC1CCNCC1` [NUCC-0226696], for which, under setting [1], the IC50 is greater than 20 µM. On to `COc1ccc(Cn2c(C(F)(F)F)cc3c(Cl)ncnc32)cn1` [NUCC-0226697], for which the IC50 is 1.08 µM under setting [1] and less than 2 µM under setting [2]. Turning to `Cc1cc2c(Cl)ncnc2n1CC1CCNCC1` [NUCC-0226699], under setting [1], the 50% inhibitory concentration (IC50) was greater than 20 µM.

Take `FC(F)(F)CN1CCC(Cn2c(C(F)(F)F)cc3c(Cl)ncnc32)CC1` [NUCC-0226701]: the half-maximal inhibitory concentration (IC50) is 0.919 µM under setting [1] and less than 2 µM under setting [2].
